Experimental data taken from patent US20230165873A1, “Methods of Use for Single Molecule Compounds Providing Multi-Target Inhibition to Treat Covid 19” (priority 2020, published 2023).
Where two headings read alike, the source gives them in different places.

Experiments:
PI3K gamma = PI3K gamma (Homo sapiens, UniProt P48736); assay: PI3K gamma in vitro inhibition; assay type: biochemical
Procedure: (§1) The kinase or bromodomain inhibitory activity of a compound of the invention can be determined by routine methods known to the skilled artisan without undue experimentation, or by procuring relevant analysis by a commercial vendor offering such services. […] In vivo, PI3K inhibition can be determined from target tissue biopsies by standard tissue processing in which cells are disrupted and Western Blot analysis is performed to determine the presence or absence of pAKT (substrate of PI3K) relative to a control sample. PI3K inhibition assays and BTK inhibition assays are known in the art and can be procured commercially through vendors such as Reaction Biology (Malvern, PA). The activity of a compound of the invention as an inhibitor of a bromodomain-containing protein, such as a BET protein, including BRD2, BRD3, BRD4, and/or BRDT, or an isoform or mutant thereof, may be determined in vitro, in vivo, or in a cell line. In vitro assays include assays that determine inhibition of bromodomain-containing proteins. Alternatively, inhibitor binding may be determined by running a competition experiment where a provided compound is incubated with a bromodomain-containing protein, such as a BET protein bound to known ligands, labeled or unlabeled. In vitro bromodomain inhibition assays can be performed using Alpha Screen Technology (Perkin Elmer Life and Analytical Sciences, Shelton, CT). In vivo bromodomain inhibition can be determined indirectly by evaluating the amount of a protein whose gene transcription is influenced or controlled by the bromodomain protein, for example, MYCN protein transcription is controlled by BRD4 (J.E. Delmore et al., Cell 2011, 146, 904-917; A. Puissant, Cancer Discov. 2013, 3, 308-323).
(§2) IC50 inhibition data against the indicated targets were determined for compounds of the invention using standard in vitro assays (Tables 8 and 9).

PI3K alpha = PI3K alpha (Homo sapiens, UniProt P42336); assay: PI3K alpha in vitro inhibition; assay type: biochemical
PI3K alpha, sequence (P42336 whole entry): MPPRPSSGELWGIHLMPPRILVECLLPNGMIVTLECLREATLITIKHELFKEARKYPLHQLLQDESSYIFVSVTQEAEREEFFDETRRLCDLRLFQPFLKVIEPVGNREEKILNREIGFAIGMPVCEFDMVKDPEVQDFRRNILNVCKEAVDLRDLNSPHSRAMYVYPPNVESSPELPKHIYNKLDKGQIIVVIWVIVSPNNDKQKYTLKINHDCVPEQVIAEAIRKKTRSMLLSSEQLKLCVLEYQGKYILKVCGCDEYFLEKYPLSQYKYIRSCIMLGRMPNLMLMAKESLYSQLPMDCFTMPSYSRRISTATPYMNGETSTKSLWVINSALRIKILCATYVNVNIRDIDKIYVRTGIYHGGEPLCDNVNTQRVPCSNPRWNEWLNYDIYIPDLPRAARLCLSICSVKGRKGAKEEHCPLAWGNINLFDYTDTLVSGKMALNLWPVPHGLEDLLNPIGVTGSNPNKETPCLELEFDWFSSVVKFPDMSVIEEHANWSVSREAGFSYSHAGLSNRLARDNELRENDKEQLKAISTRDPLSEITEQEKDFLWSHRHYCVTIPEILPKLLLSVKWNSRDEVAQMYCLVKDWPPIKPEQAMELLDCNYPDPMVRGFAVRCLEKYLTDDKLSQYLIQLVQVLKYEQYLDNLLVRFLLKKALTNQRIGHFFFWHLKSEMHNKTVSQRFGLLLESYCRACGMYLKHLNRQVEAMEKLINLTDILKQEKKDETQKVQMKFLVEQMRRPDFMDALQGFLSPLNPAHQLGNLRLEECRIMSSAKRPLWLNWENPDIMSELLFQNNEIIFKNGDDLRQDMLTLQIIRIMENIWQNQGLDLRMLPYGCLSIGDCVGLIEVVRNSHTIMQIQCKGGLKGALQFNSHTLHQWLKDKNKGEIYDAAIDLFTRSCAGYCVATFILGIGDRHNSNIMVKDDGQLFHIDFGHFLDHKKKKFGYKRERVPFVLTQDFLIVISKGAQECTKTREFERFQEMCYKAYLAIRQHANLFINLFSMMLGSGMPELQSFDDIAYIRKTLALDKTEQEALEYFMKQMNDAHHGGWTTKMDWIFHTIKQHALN
PI3K alpha, sequence (P27986 whole entry partner): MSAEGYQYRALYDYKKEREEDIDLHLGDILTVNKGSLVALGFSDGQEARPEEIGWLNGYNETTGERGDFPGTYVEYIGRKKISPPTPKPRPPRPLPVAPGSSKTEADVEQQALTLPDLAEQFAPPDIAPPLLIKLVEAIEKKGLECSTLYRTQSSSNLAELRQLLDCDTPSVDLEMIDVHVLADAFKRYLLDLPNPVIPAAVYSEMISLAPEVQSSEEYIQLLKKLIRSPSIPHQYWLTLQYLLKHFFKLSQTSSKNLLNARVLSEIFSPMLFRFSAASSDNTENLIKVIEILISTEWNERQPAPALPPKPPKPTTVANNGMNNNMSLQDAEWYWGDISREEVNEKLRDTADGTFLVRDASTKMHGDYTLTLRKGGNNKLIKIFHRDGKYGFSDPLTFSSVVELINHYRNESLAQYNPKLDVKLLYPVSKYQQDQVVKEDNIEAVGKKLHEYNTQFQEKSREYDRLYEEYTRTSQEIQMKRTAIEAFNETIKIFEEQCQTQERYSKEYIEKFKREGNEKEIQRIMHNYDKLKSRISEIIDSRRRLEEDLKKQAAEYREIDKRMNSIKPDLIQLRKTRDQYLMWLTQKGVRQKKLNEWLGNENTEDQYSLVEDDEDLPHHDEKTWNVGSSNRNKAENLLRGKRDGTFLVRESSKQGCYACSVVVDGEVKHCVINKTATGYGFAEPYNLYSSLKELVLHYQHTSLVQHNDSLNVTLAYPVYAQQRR
Procedure: as §1

BRD4-1 = biological target: T1, BRD4-1 (Homo sapiens, UniProt O60885); assay: BRD4-1 in vitro inhibition; assay type: binding
T1 construct: BRD4-1
Procedure: as §1

BRD4-2 = biological target: T2, BRD4-2 (Homo sapiens, UniProt O60885); assay: BRD4-2 in vitro inhibition; assay type: binding
T2 construct: BRD4-2
Procedure: as §1

PI3K delta = PI3K delta (Homo sapiens, UniProt O00329); assay: PI3K delta in vitro inhibition; assay type: biochemical
Procedure: as §1, §2

CDK4 cyclinD1 = CDK4 cyclinD1 (Homo sapiens, UniProt P11802); assay: CDK4 cyclinD1 in vitro inhibition; assay type: biochemical
CDK4 cyclinD1, sequence (P11802 whole entry): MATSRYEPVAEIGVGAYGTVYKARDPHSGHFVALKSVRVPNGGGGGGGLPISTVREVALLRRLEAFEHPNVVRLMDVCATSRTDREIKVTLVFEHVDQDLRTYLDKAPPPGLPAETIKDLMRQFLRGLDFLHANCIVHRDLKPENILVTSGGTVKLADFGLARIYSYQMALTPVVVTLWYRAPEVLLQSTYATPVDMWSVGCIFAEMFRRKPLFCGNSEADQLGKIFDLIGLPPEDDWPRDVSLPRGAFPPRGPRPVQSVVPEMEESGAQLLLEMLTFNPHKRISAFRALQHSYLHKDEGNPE
CDK4 cyclinD1, sequence (P24385 whole entry partner): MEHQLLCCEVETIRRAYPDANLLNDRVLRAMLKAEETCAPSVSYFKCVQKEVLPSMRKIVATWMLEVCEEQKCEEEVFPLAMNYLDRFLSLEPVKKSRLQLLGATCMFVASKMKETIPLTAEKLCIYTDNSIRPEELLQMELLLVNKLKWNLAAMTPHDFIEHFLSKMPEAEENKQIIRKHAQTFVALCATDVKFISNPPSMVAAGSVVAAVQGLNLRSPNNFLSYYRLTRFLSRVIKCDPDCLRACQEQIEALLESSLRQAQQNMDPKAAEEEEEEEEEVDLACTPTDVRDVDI
Procedure: as §1, §2

CDK6 cyclinD1 = CDK6 cyclinD1 (Homo sapiens, UniProt Q00534); assay: CDK6 cyclinD1 in vitro inhibition; assay type: biochemical
CDK6 cyclinD1, sequence (Q00534 whole entry): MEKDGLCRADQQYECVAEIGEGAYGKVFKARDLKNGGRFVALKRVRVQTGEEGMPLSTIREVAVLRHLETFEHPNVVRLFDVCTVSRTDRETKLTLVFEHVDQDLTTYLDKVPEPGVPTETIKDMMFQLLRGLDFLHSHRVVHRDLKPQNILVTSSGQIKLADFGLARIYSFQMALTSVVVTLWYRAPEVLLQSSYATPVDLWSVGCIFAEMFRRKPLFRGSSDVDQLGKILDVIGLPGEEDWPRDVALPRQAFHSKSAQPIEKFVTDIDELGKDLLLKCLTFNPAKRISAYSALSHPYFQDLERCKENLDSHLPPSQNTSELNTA
CDK6 cyclinD1, sequence (P24385 whole entry partner): as the sequence (P24385 whole entry partner) above
Procedure: as §1, §2

BTK C481S = BTK C481S (Homo sapiens, UniProt Q06187, C481S); assay: BTK C481S in vitro inhibition; assay type: biochemical
BTK C481S, sequence (Q06187 whole entry C481S): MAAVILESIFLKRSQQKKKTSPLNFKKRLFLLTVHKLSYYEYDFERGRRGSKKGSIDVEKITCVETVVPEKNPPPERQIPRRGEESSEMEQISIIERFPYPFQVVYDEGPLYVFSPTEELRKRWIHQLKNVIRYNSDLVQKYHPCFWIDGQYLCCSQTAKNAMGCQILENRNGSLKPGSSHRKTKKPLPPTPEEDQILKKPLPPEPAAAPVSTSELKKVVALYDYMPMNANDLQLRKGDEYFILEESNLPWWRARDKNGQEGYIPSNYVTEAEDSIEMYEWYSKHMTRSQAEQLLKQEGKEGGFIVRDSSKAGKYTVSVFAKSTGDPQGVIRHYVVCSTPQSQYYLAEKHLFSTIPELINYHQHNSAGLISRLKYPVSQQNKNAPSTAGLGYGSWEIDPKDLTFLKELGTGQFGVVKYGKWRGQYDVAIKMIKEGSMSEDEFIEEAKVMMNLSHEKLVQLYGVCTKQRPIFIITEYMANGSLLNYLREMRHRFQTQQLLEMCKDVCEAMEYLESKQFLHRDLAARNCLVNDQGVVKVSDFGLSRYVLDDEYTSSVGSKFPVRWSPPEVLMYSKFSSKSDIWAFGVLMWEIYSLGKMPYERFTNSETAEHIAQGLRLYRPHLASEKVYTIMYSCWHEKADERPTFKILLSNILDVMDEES
Procedure: as §1, §2

PI3K beta = PI3K beta (Homo sapiens, UniProt P42338); assay: PI3K beta in vitro inhibition; assay type: biochemical
PI3K beta, sequence (P42338 whole entry): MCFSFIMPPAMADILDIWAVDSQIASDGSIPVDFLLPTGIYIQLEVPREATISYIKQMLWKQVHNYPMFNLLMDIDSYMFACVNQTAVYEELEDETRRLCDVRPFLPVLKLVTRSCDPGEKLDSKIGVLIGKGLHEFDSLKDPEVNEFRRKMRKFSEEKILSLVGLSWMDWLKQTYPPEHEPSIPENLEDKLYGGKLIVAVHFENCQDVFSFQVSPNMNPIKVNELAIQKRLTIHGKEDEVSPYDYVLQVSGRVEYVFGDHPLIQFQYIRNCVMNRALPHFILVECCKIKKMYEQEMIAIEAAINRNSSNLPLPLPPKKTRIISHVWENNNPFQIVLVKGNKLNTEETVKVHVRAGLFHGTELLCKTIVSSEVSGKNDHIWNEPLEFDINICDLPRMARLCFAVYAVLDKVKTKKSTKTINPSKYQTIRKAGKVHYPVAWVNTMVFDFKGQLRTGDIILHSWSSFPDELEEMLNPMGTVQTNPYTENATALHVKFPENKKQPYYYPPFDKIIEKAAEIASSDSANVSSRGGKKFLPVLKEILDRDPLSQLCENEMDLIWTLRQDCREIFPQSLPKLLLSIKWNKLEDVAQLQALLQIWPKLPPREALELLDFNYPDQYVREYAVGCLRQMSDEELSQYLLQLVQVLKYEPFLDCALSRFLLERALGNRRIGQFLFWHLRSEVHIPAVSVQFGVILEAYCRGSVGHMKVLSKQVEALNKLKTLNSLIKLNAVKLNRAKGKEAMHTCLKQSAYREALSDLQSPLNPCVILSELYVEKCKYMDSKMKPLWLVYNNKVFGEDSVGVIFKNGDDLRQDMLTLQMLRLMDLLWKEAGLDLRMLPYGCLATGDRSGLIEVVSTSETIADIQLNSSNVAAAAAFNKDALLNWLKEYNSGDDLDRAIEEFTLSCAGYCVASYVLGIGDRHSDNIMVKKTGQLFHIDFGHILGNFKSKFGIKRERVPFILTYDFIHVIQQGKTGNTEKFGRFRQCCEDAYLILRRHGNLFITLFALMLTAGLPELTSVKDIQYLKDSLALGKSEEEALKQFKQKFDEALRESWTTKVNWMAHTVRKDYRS
PI3K beta, sequence (P27986 whole entry partner): as the sequence (P27986 whole entry partner) above
Procedure: as §1

BTK = BTK (Homo sapiens, UniProt Q06187); assay: BTK in vitro inhibition; assay type: biochemical
BTK, sequence (Q06187 whole entry): as the sequence (Q06187 whole entry C481S) above, with S481C counted along it
Procedure: as §1, §2

[1] = read-out: IC50 inhibition PI3K gamma

SMILES	IC50 (PI3K gamma; [1]) [nM]	IC50 (PI3K alpha) [nM]	IC50 (BRD4-1) [nM]	IC50 (BRD4-2) [nM]	IC50 (PI3K delta) [nM]	IC50 (PI3K gamma; IC50 inhibition PI3K gamma) [nM]	IC50 (CDK4 cyclinD1) [nM]	IC50 (CDK6 cyclinD1) [nM]	IC50 (BTK C481S) [nM]	IC50 (PI3K beta) [nM]	IC50 (BTK) [nM]
O=c1cc(N2CCOCC2)oc2c(C#Cc3ccsc3)csc12 [Compound 5-1]	< 500	< 500	10000 to 45000	10000 to 45000	< 500						
COc1ccc(C#Cc2csc3c(=O)cc(N4CCOCC4)oc23)cc1 [Compound 5-2]		< 500	500 to 1000	1000 to 10000	< 500	500 to 1000					
COc1cc(C#Cc2csc3c(=O)cc(N4CCOCC4)oc23)cc(OC)c1 [Compound 5-3]	1000 to 10000	500 to 1000	< 500	500 to 1000	< 500						
O=c1cc(N2CCOCC2)oc2c(C#Cc3ccccc3)csc12 [Compound 5-4]	< 500	< 500	1000 to 10000	10000 to 45000	< 500						
Cc1nc2c(F)cc(-c3nc(Nc4ccc(-c5csc6c(=O)cc(N7CCOCC7)oc56)cc4)ncc3F)cc2n1C(C)C [Compound 25-1]	> 45000	10000 to 45000	> 45000	> 45000	1000 to 10000		< 500	< 500			
CC(=O)c1c(C)c2cnc(Nc3ccc(-c4csc5c(=O)cc(N6CCOCC6)oc45)cc3)nc2n(C2CCCC2)c1=O [Compound 25-2]	1000 to 10000	< 500	< 500	< 500	< 500		< 500	< 500			
CC(C)(C)OC(=O)Nc1cc2cnc(Nc3ccc(-c4csc5c(=O)cc(N6CCOCC6)oc45)cc3)nc2n1C1CCCC1 [Compound 25-3]	1000 to 10000	< 500	< 500	500 to 1000	< 500		< 500	< 500			
C=CC(=O)Nc1ccc(-c2csc3c(=O)cc(N4CCOCC4)oc23)cc1 [Compound 30]	500 to 1000	< 500	1000 to 10000	< 500					> 45000	< 500	10000 to 45000
C=CC(=O)Nc1cccc(-c2csc3c(=O)cc(N4CCOCC4)oc23)c1 [Compound 31]	1000 to 10000	< 500	500 to 1000	1000 to 10000					> 45000	< 500	500 to 1000
C=CC(=O)N1CCOc2ccc(-c3csc4c(=O)cc(N5CCOCC5)oc34)cc21 [Compound 32]	< 500	< 500	< 500	< 500					10000 to 45000	< 500	< 500
COc1cc(NC(C)=O)cc(-c2csc3c(=O)cc(N4CCOCC4)oc23)c1 [Compound 33]	< 500	< 500	< 500	1000 to 10000					> 45000	< 500	500 to 1000
C=CC(=O)Nc1cc(-c2csc3c(=O)cc(N4CCOCC4)oc23)ccc1OC [Compound 36]	1000 to 10000	< 500	< 500	500 to 1000					1000 to 10000	< 500	1000 to 10000
C/C=C(/C)C(=O)N1CCOc2ccc(-c3csc4c(=O)cc(N5CCOCC5)oc34)cc21 [Compound 37]	500 to 1000	< 500	500 to 1000	500 to 1000					> 45000	< 500	10000 to 45000
C/C=C(\C)C(=O)N1CCOc2ccc(-c3csc4c(=O)cc(N5CCOCC5)oc34)cc21 [Compound 38]	1000 to 10000	< 500	< 500	500 to 1000					> 45000	< 500	> 45000
